Measurements from PubChem BioAssay (NCI).
Where “and” joins values, the source holds several entries; their conditions need not be identical. Equal entries are not always repeated.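 Where inhibition never reached the appropriate level, the endpoint shown equals the highest concentration tested. Otherwise, values were interpolated linearly from a five-concentration, 48-hour dose response in 96-well plates. GI50: concentration for 50% inhibition of growth. At the TGI there is no net growth.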

What follows are compounds tested on SF-539 CNS (assay: inhibition of tumour cell growth, NCI panel, 48 h).
Compound `CC(C)N(C(=O)C12C3C4C1C1C4(C#N)C3C12C#N)C(C)C` (configuration not stated) has a TGI of over 100 µM.
Work on `O=C1CCC(Cl)=CC2CCCN12` (configuration not stated) yielded a TGI of over 100 µM.
Compound `c1ccc2cc(-c3cc4ccccc4s3)ccc2c1` has a TGI of over 100 µM.
For `CC(C)C(CCl)NC(=O)c1cccc(C(=O)N[C@H](CCl)C(C)C)n1` (stereo in doubt), the TGI was over 100 µM.
For `NC(=O)/C=C/C(=O)c1c(Cl)cccc1Cl`, the GI50 was 1.41 µM and the TGI was 2.71 µM.
`CCC(=O)CC(=O)CCC(=O)Nc1cc(C)ccc1C` was tested, and the TGI was over 100 µM.
`NC(N)=N/N=C/c1c(-c2ccsc2)nc2sccn12` showed a GI50 of 18.3 µM and a TGI of 34.2 µM.
Compound `CC(=O)Nc1ccc(S(=O)(=O)N2C(=O)CCC2C(=O)Nc2ccc(Br)cc2)cc1` (configuration not stated) has a GI50 of 2.45 µM and a TGI of 6.78 µM.
`CC(=O)CCn1ncc(Cl)c(Cl)c1=O` gave a TGI of 38.5 µM.
In the case of `CO/N=C(/C)c1cccc(Nc2cc(-n3nnc4ccccc43)nc3ccccc23)c1`, the GI50 is reported as 45.5 µM and the TGI is reported as over 100 µM.
Compound `CN1CC(=O)N2Cc3ccccc3-n3cccc3C2C1` (configuration not stated) has a TGI of over 100 µM.
`NC(=S)N/N=C/C(=O)O` showed a GI50 of over 100 µM and a TGI of over 100 µM.

Each compound was assayed on SK-MEL-2 melanoma (assay: inhibition of tumour cell growth, NCI panel, 48 h).
`Clc1ccc2c(c1)[nH]c1c2nc2ccccn21` was tested, and the TGI was > 100 µM and 17.8 µM.
`CCOC(=O)c1cnc2c(ccc3[nH]n(C)nc32)c1=O` gave a TGI of 46.1 µM.
`COC(=O)C(C(=O)c1ccccc1)C(C(=O)C(=O)Nc1ccc(OC)cc1OC)C(=O)C(=O)c1ccc(C)cc1` (configuration not stated) showed a TGI of over 100 µM.
`CC1(C)COC(C2(C)C(=O)C=C(c3ccccc3)c3ccccc32)=N1` (configuration not stated) showed a TGI of over 100 µM.
In the case of `O=C(Nc1ccn(CCO)c(=O)n1)c1ccccc1`, the TGI is reported as over 100 µM.
Compound `O=C1CCC2(c3ccc(Cl)cc3)Nc3ncccc3N12` (configuration not stated) has a TGI of over 100 µM.
With `COc1ccc(Sc2[nH]c(C(C)=O)c3ccccc23)cc1` the GI50 was 13 µM and the TGI was 31.2 µM.
In the case of `C#CCOc1cccc(-c2ncc3cc(NC(=O)CCl)ccc3n2)c1`, the GI50 is reported as 1.58 µM and the TGI is reported as 3.63 µM.
With `CC12C/C(=C\c3ccccc3)C(=O)C3C1CCCC32` the TGI was over 100 µM.
`OC(CC1SCCCS1)c1ccccc1` (configuration not stated) was tested, and the TGI was over 100 µM.
`CCCCOC(=O)CNC(=O)OC/C=C/C#CC#C/C=C/COC(=O)NCC(=O)OCCCC` showed a GI50 of over 100 µM and a TGI of over 100 µM.
With `COc1ccc(OC)c2c1[nH]c(=O)c1c3ccccc3cn21` the GI50 was 2 µM and the TGI was 4.01 µM.
In the case of `COc1cccc2c1C(=O)c1c(O)c3c(c(O)c1C2=O)C[C@@](O)(C(=O)CO)C[C@@H]3OC1CC(N)CC(C)O1` (some centres not stated), the GI50 is reported as 0.125 µM and 0.0769 µM and the TGI is reported as 0.315 µM and 0.22 µM.
Work on `O=C1c2ccccc2C(=O)N1CCn1ccc(NC(c2ccccc2)(c2ccccc2)c2ccccc2)nc1=O` yielded a TGI of 43.2 µM.
With `CC(C)(C)NNC(=O)CCn1[nH]c(=O)c(Cl)c(Cl)c1=O` the TGI was over 100 µM.
`O=CCC1CCCCC1` gave a TGI of over 100 µM.
`CN(C)CCNC(=O)c1cccc2ccc(-c3ccc(O)cc3)nc12` was tested, and the TGI was 15.9 µM and 9.73 µM.
`CCC12CCCN(Cc3ccccc3)C1c1c(n(C)c3ccccc13)CC2` (configuration not stated) gave a TGI of over 253 µM.
With `CSc1nc(=O)n(CCC#N)nc1SC` the TGI was 39.8 µM.
In the case of `COc1cc(Nc2ncccc2C(=O)NCc2cn(Cc3cccc(Oc4ccccc4)c3)nn2)cc(OC)c1`, the GI50 is reported as 6.68 µM and the TGI is reported as over 100 µM.
In the case of `Cc1cc(Nc2ccc(NC(=O)c3ccc(Nc4ccnc5ccccc45)cc3)cc2)nc(N)n1`, the GI50 is reported as 5.56 µM and the TGI is reported as 94.7 µM.
In the case of `COc1cc(-c2oc(=O)ccc2C#Cc2ccccn2)cc(OC)c1OC`, the GI50 is reported as 4.15 µM and the TGI is reported as over 100 µM.
With `COC(=O)C1c2cc3c(cc2C(OC2OC(C)C(OC)C(C)(OC)C2OC)CC1(C)O)C(=O)c1c(O)cc2c(c1C3=O)OC1OC2(C)C(O)C([N+](C)(C)[O-])C1O` (configuration not stated) the TGI was 0.641 µM.
`O=C1CCC(Cl)=CC2CCCN12` (configuration not stated) showed a TGI of over 100 µM.
Compound `COc1ccc(/C=C\[N+](=O)[O-])cc1OC` has a GI50 of 2.64 µM and a TGI of 7.39 µM.
`c1ccc2cc(-c3cc4ccccc4s3)ccc2c1` gave a TGI of over 100 µM.
`NC(=O)/C=C/C(=O)c1c(Cl)cccc1Cl` was tested, and the GI50 was 1.83 µM and the TGI was 4.01 µM.
With `CCC(=O)CC(=O)CCC(=O)Nc1cc(C)ccc1C` the TGI was over 100 µM.
For `CC(=O)Nc1ccc(S(=O)(=O)N2C(=O)CCC2C(=O)Nc2ccc(Br)cc2)cc1` (configuration not stated), the GI50 was 4.05 µM and the TGI was 17.8 µM.
